Like-named read-outs stand apart in the source and are kept apart here. Values belong to the compound of their own block, whether it stands above or below them.
Experiments:
[1] = Hygroscopicity: open weighing bottles in a constant temperature and humidity incubator, moisture absorption rate; assay type: physicochemical; details: for hygroscopicity (in words): compared with the amorphous compound of structural formula (I); for Moisture absorption rates after 1 month / Moisture absorption rates after 2 months / Moisture absorption rates after 2 weeks: 25° C., 75% humidity
Protocol: The crystal form A products prepared in example 1, example 2 and example 3 were taken and placed in weighing bottles for precision weighing. The caps of the bottles were opened, the bottles were put on an upper part of a drier and placed in a constant temperature and humidity incubator with 25° C. and 75% humidity, three parts were subjected to parallel operation, and then taken and weighed in two weeks, one month and two months respectively, and the compound amorphous powder of structural formula (I) was used as comparative example 1. Moisture absorption rate=(weight after moisture absorption - weight before moisture absorption)/weight before moisture absorption×100%.

IPF model (bleomycin) = experiment: Animal drug effect in the bleomycin-induced IPF model, intragastric administration; assay type: in vivo, C57BL/6 mice; details: for overall effect on idiopathic pulmonary fibrosis: bleomycin mouse model, vs Pirfenidone and Nintedanib
Protocol: Trial mice were C57BL/6 mice, 35 mice in total, 7 mice in each group, including a saline group, a bleomycin group, a Nintedanib group (100 mpk), a Pirfenidone group (200 mpk) and a group (100 mpk) administrating the crystal form A of the compound of structural formula (I). On day 0, bleomycin (2U/kg) was injected using a trachea to establish an IPF model, 0-7 days were inflammation periods of mice, and 7-14 days were fibrosis lasting progressive periods of mice. Administration was conducted on the day 7, materials were taken on the day 14, the lung functions of mice were measured after mice were narcotized, then the left lungs were taken to make pathological sections, and the right lungs were used to measure hydroxyproline.

[2] = Absorption experiment (pharmacokinetics and bioavailability) in rats; assay type: in vivo; details: Sprague Dawley, plasma, rat; for bioavailability: oral, 150 mpk
Protocol: Trial rats were Sprague Dawley rats, 7 rats in total, 1 rat was used as blank control, and blank plasma was taken to be used. 3 rats were administrated via tail intravenous injection (30 mpk), and 3 rats were orally and intragastrically administrated (150 mpk). According to the set time schedule, blood was collected from orbital vein to put in a blood collection vessel containing heparin sodium, centrifuged for 10min at 4° C. and 3500rpm, the supernatant of plasma was taken and put into EP tube, and the content of the compound of structural formula (I) in blood was detected. Bioavailability was calculated according to the following formula: bioavailability F %=(AUCpo/AUCIV)×(dose IV/dose po)×100%; Time schedule was set, as shown in Table 2. AUCpo is an area under the drug concentration-time curve under administrating oral drug, AUCIV is an area under the drug concentration-time curve under intravenous injecting drug, dose IV is the dose of the injected drug, the dose po is the dose of the oral drug, Tmax (h) is the time to reach the blood peak, T1/2 (h) is the half-life of blood concentration, and Cmax (ng/mL) is the drug peak concentration of the drug-time curve.

[3] = 30 mg/kg, intravenous injection (30 mpk)
[4] = 150 mg/kg, oral administration (150 mpk)

hygroscopicity (in words) [1]: obviously reduced | hygroscopicity (in words) ([1]; listed as crystal form A of the compound (I)): basically non-hygroscopic | AUC [2, 3]: 40.6 µg·h/mL | Cmax [2, 3]: 21300 ng/mL | Tmax [2, 3]: 0.11 h | half-life [2, 3]: 1.35 h | AUC [2, 4]: 174 µg·h/mL | Cmax [2, 4]: 56300 ng/mL | Tmax [2, 4]: 0.67 h | half-life [2, 4]: 1.91 h | bioavailability ([2]; po 150 mpk vs iv 30 mpk, read-out: bioavailability): 85.8%
SMILES: CN(C)C[C@@H]1C(=O)O[C@@H]2C[C@@]3(C)CC[C@@H](O)[C@]4(CO4)[C@@H]3C[C@H]12.O=C(O)CCC(=O)O
pathological sections (area of pulmonary fibrosis focus, alveolar structure) (IPF model (bleomycin); 100 mpk, administration from day 7, left lung taken on day 14): can obviously reduce the area of pulmonary fibrosis focus and normalize the alveolar structure | forced vital capacity (FVC) (IPF model (bleomycin); 100 mpk, day 14): can significantly improve the FVC of mice | pulmonary fibrosis area (fibrotic percentage) (IPF model (bleomycin); 100 mpk, day 14, vs Nintedanib (100 mpk) and Pirfenidone (200 mpk)): superior to the positive drugs | expression of hydroxyproline (content of collagen in the lungs) (IPF model (bleomycin); 100 mpk, right lung, day 14): can significantly reduce the content of collagen in the lungs | overall effect on idiopathic pulmonary fibrosis (IPF model (bleomycin)): can significantly alleviate idiopathic pulmonary fibrosis

Moisture absorption rates after 1 month [1]: 2.7% | Moisture absorption rates after 2 months [1]: 3.2% | Moisture absorption rates after 2 weeks [1]: 1.4% | bioavailability ([2]; crystal form A prepared by the methods in example 1 and example 3, read-out: bioavailabilities): > 85.5%
SMILES: CN(C)C[C@@H]1C(=O)O[C@@H]2C[C@@]3(C)CC[C@@H](O)[C@]4(CO4)[C@@H]3C[C@H]12.O=C(O)CCC(=O)O [Example 1]
overall effect on idiopathic pulmonary fibrosis (IPF model (bleomycin)): can significantly alleviate idiopathic pulmonary fibrosis

Moisture absorption rates after 1 month [1]: 3.8% | Moisture absorption rates after 2 months [1]: 3.1% | Moisture absorption rates after 2 weeks [1]: 1.9%
SMILES: CN(C)C[C@@H]1C(=O)O[C@@H]2C[C@@]3(C)CC[C@@H](O)[C@]4(CO4)[C@@H]3C[C@H]12.O=C(O)CCC(=O)O [Example 2]

Moisture absorption rates after 1 month [1]: 2.2% | Moisture absorption rates after 2 months [1]: 2.8% | Moisture absorption rates after 2 weeks [1]: 1.6%
SMILES: CN(C)C[C@@H]1C(=O)O[C@@H]2C[C@@]3(C)CC[C@@H](O)[C@]4(CO4)[C@@H]3C[C@H]12.O=C(O)CCC(=O)O [Example 3]
overall effect on idiopathic pulmonary fibrosis (IPF model (bleomycin)): can significantly alleviate idiopathic pulmonary fibrosis

Moisture absorption rates after 1 month [1]: 12.7% | Moisture absorption rates after 2 months [1]: 22.6% | Moisture absorption rates after 2 weeks [1]: 8.1%
SMILES: CN(C)C[C@@H]1C(=O)O[C@@H]2C[C@@]3(C)CC[C@@H](O)[C@]4(CO4)[C@@H]3C[C@H]12.O=C(O)CCC(=O)O [compound 1]
